Tests used:
[1] = target: T1, Matrix metalloproteinase 3 (MMP-3) (Homo sapiens, UniProt P08254); assay: Enzyme inhibition experiment, MMP-3; assay type: biochemical; settings: 3168 substrate, 37° C., 4 hours
T1 construct: purchased Calbiochem 444217
Description: Matrix metalloproteinase 3 (MMP-3) (manufactured by Calbiochem, product number: 444217)
(§1) 3168 substrate (MOCAc-Arg-Pro-Lys-Pro-Val-Glu-Nva-Trp-Arg-Lys(Dnp)-NH2, manufactured by Peptide Institute, Inc.): excitation wavelength at 320 nm, emission wavelength at 405 nm, and 3163 substrate (MOCAc-Pro-Leu-Gly-Leu-A2pr(Dnp)-Ala-Arg-NH2, manufactured by Peptide Institute, Inc.): excitation wavelength at 320 nm, emission wavelength at 405 nm.
(§2) The enzyme reaction was carried out using the enzymes and substrates. Specifically, if necessary, the enzyme was activated in advance with APMA (final concentration 1 mmol/L, p-aminophenylmercuric acetate, manufactured by Sigma-Aldrich Co., A9563) according to information from the manufacturer. Then, in a 96-well plate for fluorescence measurement, 90 μL of an enzyme solution prepared with Assay Buffer A (50 mmol/L Tris-HCl buffer (pH 7.5) containing 200 mmol/L sodium chloride, 5 mmol/L calcium chloride, 10 μmol/L zinc sulfate, and 2 mg/mL bovine serum albumin) was mixed with 90 μL of the substrate adjusted to be 20 μmol/L with Assay Buffer B (50 mmol/L Tris-HCl buffer (pH 7.5) containing 200 mmol/L sodium chloride, 5 mmol/L calcium chloride, 10 μmol/L zinc sulfate, and 0.05% PLURONIC F-68), and incubated for reaction at 25° C. or 37° C. for several hours. Moreover, the fluorescence intensities before and after the reaction were measured using a fluorometer to determine the enzyme activity. An inhibition rate was obtained based on the enzyme activities in the presence and absence of the test substances, and the 50% inhibitory concentration (IC50) was calculated.

ADAM17 = target: T2, ADAM17 (Homo sapiens, UniProt P78536); assay: ADAM17 inhibition experiment (fluorescent synthetic substrate); assay type: biochemical
T2 construct: made in house; host or cells: mammalian cells or insect cells
Description: The cDNA was incorporated into an expression vector. Then, this vector was transfected into mammalian cells or insect cells, and ADAM17 was expressed and obtained.
Next, the activity of ADAM17 was measured, as follows in the presence or absence of the test substances, in which obtained ADAM17 was used as an enzyme, and a fluorescent synthetic substrate Nma (N-methyl anthranilate)-[…]Dnp (dinitrophenyl)-D-Arg-NH2 containing an ADAM17-cleavage sequence of membrane-bound TNF was used as a substrate.
Specifically, 90 μL of 14 units of an enzyme solution (1 unit is defined as an amount of enzyme degrading […] of the substrate in 1 minute at 25° C.) prepared with Assay Buffer A (50 mmol/L Tris-HCl buffer (pH 7.5) containing 200 mmol/L sodium chloride, 5 mmol/L calcium chloride, 10 μmol/L zinc sulfate, and 2 mg/mL bovine serum albumin) was mixed with 90 μL of the fluorescent synthetic substrate adjusted to be 20 μmol/L with Assay Buffer B (50 mmol/L Tris-HCl buffer (pH 7.5) containing 200 mmol/L sodium chloride, 5 mmol/L calcium chloride, 10 μmol/L zinc sulfate, and 0.05% PLURONIC F-68), and allowed for reaction at 37° C. for 1.5 hours. Thereafter, the enzyme activity was determined by measurement using a fluorometer (Fluoroskan Ascent) under conditions of an excitation wavelength of 355 nm and a measurement wavelength of 460 nm. Then, an inhibition rate was obtained based on the enzyme activities in the presence and absence of the test compounds, and the 50% inhibitory concentration (IC50) was calculated.
A disintegrin and metalloproteinase 17 (ADAM17, TACE) (used was one prepared at Kaken Pharmaceutical Co., Ltd. by employing the genetic recombination in the same way as in Test Example 3. Note that, the same as in Test Example 3, 1 unit is defined as an amount of enzyme degrading 1 pmol of substrate in 1 minute at 25° C.)
(§3) TACE substrate (the same as one used in Test Example 3): excitation wavelength at 355 nm, emission wavelength at 460 nm
as §2

[2] = target: T3, Matrix metalloproteinase 17 (MMP-17) (Homo sapiens, UniProt Q9ULZ9); assay: Enzyme inhibition experiment, MMP-17; assay type: biochemical; settings: 3163 substrate, 25° C., 5 hours
T3 construct: purchased Calbiochem 475940
T3 sequence (Q9ULZ9 126-298 limits assumed): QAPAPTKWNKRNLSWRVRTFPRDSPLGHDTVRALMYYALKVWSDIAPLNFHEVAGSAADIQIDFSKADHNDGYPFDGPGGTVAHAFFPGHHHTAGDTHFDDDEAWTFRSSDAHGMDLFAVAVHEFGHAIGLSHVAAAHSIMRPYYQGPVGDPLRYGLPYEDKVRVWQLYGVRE
Description: Matrix metalloproteinase 17 (MMP-17) (manufactured by Calbiochem, product number: 475940)
as §1, §2

[3] = target: T4, Matrix metalloproteinase 13 (MMP-13) (Homo sapiens, UniProt P45452); assay: Enzyme inhibition experiment, MMP-13; assay type: biochemical; settings: 444221 substrate, 37° C., 4 hours
T4 construct: purchased Chemicon CC068
Description: Matrix metalloproteinase 13 (MMP-13) (manufactured by Chemicon, product number: CC068)
as §2, with “activity.” for “activity. An inhibition rate was obtained based on the enzyme activities in the presence and absence of the test substances, and the 50% inhibitory concentration (IC50) was calculated.”

[4] = target: T5, Matrix metalloproteinase 14 (MMP-14) (Homo sapiens, UniProt P50281); assay: Enzyme inhibition experiment, MMP-14; assay type: biochemical; settings: 444221 substrate, 37° C., 5 hours
T5 construct: purchased Calbiochem 475935
Description: Matrix metalloproteinase 14 (MMP-14) (manufactured by Calbiochem, product number: 475935)
444221 substrate (DNP-Pro-Cha-Gly-Cys(Me)-His-Ala-Lys(Nma)-NH2, custom synthesis): excitation wavelength at 355 nm, emission wavelength at 460 nm
as §2

[5] = test system: ES cell-derived platelets (ADAM17-mediated GPIbα shedding); assay: Function-maintaining effect on ES cell-derived platelets in culture system (flow cytometry CD41/CD42b, platelet count)
Description: As human ES cells (hES cells), a KhES cell line (KhES-3) established by and provided from Institute for Frontier Medical Sciences, Kyoto University was used.
The human ES cells or the human iPS cells were seeded on the feeder cells such that the cell count was 5×10^4 to 1×10^5/10-cm dish. The cells were cultured in Iscove's Modified Dulbecco's Medium (IMDM, manufactured by Invitrogen Corp/GIBCO) supplemented with 15% FBS (product name: CELLect™ GOLD, manufactured by ICN Biomedicals Inc.), 2 mM L-glut amine (manufactured by Invitrogen Corp.), ITS supplement (10 μg/ml insulin, 5.5 mg/ml human transferrin, 5 ng/ml sodium selenite) (manufactured by Sigma-Aldrich Co.), 50 μg/ml ascorbic acid (Sigma-Aldrich Co.), 0.45 mM α-monothioglycerol (MTG, manufactured by Sigma-Aldrich Co.), and 20 ng/ml vascular endothelial growth factor (VEGF, manufactured by R&D Systems, Inc.). Further, this culturing was carried out at 37° C. in 5% CO2 and 21% O2 (atmospheric oxygen) using a CO2 incubator (product name: HERA CELL 150i, manufactured by Thermo Fisher Scientific K. K.). Then, the medium was replaced every 3 days, and the culturing was continued under the conditions until Day 15 when a large number of sac structures (sac-like structures) containing hematopoietic progenitor cells therein were observed.
Next, after detached from the dish, the sac structures were disrupted and suspended in a 3% FBS-containing phosphate buffer solution (PBS). Then, the suspension was passed through a 40-μm cell strainer (manufactured by BD). The solution thus passed through was centrifuged at 440×g for 10 minutes to collect hematopoietic progenitor cells, and the cells was counted. The hematopoietic progenitor cells were seeded on 10T1/2 cells newly prepared in a 6-well plate (6×10^5 cells/plate) exposed to 50-Gy radiation such that the number of the hematopoietic progenitor cells was 2 to 3×10^4/well. The hematopoietic progenitor cells were further cultured for 8 days in IMDM (manufactured by Invitrogen Corp/GIBCO) supplemented with 15% FBS (product name: CELLect™ GOLD, manufactured by ICN Biomedicals Inc.), 2 mM L-glutamine (manufactured by Invitrogen Corp.), ITS supplement (10 μg/ml insulin, 5.5 mg/ml transferrin, 5 ng/ml sodium selenite) (manufactured by Sigma-Aldrich Co.), 50 μg/ml ascorbic acid (manufactured by Sigma-Aldrich Co.), 0.45 mM MTG (manufactured by Sigma-Aldrich Co.), 100 ng/ml human thrombopoietin (human TPO, manufactured by PeproTech, Inc.), 50 ng/ml human stem cell factor (SCF, manufactured by PeproTech, Inc.), and 25 U/ml heparin. Thereby, megakaryocytes/platelets were induced.
Subsequently, the induced megakaryocytes/platelets were collected with an anticoagulant solution (Acid Citrate Dextrose, ACD), followed by centrifugation at 900 rpm for 10 minutes without a break. The supernatant obtained by the centrifugation was further centrifuged at 1500 rpm for 10 minutes without a break to remove the supernatant. Thereafter, the numbers of megakaryocytes and platelets in the precipitate thus obtained were analyzed by flow cytometry using antibodies for staining.
Note that, in the flow cytometry, FACS Aria manufactured by Becton, Dickinson and Company was used. As the antibodies used to stain the megakaryocytes and the platelets, used were a Phycoerythrin (PE)-modified anti-human CD42a (GPIX) antibody, a PE-modified anti-human CD42b (GPIbα) antibody, and an allophycocyanin (APC)-labelled anti-CD41a (integrin αIIbbeta3 complex, HIP8 clone) antibody (manufactured by BD Bioscience). Additionally, in order to accurately measure the absolute numbers of the megakaryocytes and the platelets, the cells were stained with these antibodies, and the analysis was conducted by flow cytometry using TruCount beads (manufactured by BD Bioscience), also.

[6] = target: T6, A disintegrin and metalloproteinase 10 (ADAM10) (Homo sapiens, UniProt O14672); assay: Enzyme inhibition experiment, ADAM10; assay type: biochemical; settings: TACE substrate, 25° C., 5 hours
T6 construct: purchased Funakoshi Co., Ltd. 936-AD-020
T6 sequence (O14672 214-672 limits assumed): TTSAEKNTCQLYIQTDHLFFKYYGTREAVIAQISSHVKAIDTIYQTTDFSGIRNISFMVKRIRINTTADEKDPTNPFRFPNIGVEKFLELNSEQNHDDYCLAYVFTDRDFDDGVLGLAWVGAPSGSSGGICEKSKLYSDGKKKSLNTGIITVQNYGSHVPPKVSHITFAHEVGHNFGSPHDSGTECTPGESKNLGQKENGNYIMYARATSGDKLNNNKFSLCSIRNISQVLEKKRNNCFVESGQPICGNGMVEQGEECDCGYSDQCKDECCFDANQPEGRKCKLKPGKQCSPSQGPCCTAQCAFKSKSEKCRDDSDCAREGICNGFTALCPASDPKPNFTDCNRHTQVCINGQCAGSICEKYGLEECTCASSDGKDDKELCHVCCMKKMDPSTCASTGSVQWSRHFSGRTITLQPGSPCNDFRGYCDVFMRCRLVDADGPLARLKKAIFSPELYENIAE
Description: A disintegrin and metalloproteinase 10 (ADAM10) (manufactured by Funakoshi Co., Ltd., product code: 936-AD-020) and
as §3, §2

T2 sequence (P78536 215-824): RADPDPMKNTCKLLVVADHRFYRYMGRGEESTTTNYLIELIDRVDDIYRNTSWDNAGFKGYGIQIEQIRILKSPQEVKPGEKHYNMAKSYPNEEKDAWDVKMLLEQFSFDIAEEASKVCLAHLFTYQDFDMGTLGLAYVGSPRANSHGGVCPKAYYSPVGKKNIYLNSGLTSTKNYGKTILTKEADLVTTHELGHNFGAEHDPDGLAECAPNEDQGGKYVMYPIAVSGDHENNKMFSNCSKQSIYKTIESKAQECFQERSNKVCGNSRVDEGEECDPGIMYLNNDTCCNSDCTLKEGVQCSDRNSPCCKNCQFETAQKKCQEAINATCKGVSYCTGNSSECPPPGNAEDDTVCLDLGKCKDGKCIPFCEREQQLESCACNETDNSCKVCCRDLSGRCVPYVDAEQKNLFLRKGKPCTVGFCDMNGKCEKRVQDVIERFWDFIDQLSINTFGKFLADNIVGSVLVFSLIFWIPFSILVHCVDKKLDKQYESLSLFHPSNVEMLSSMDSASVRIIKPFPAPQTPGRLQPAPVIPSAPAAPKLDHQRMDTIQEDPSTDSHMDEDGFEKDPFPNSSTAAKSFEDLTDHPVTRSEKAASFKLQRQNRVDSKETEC
T1 sequence (P08254 100-272 limits assumed): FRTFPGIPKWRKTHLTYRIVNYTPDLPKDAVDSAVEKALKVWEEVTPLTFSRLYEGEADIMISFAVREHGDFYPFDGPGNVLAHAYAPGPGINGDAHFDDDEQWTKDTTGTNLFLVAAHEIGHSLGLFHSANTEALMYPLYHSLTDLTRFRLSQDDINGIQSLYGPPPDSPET

**Q.** Which results are given for `CNC(=O)[C@H](Cc1c[nH]c2ccccc12)NC(=O)[C@@H](CC(=O)NO)CC(C)C` [GM6001, reference compound]?
**A.** IC50 [1]: 32 nM; IC50 (ADAM17): 310 nM; inhibitory activity on ADAM17 enzyme (in words) (ADAM17): weak; specificity to ADAM17 in comparison with metalloproteinases other than ADAM17 (ADAM17; from Table 3): non-specifically and strongly inhibited metalloproteinases; IC50 [2]: 3 nM; IC50 [3]: 0.26 nM; IC50 [4]: 1.6 nM; cytotoxicity ([5]; Test Example 5, 50 μM, 8-day addition): had cytotoxicity; number of platelets obtained ([5]; Test Example 5, 8-day addition, 50 μM GM6001 vs 5 μM S-45282): fewer platelets than 5 μM S-45282; inhibition of ADAM17-mediated GPIbα shedding (CD42b(+) percentage) ([5]; Test Example 5, added for 2 days or 8 days, GM6001 50 μM, S-45282 5 μM or 50 μM): inhibit ADAM17-mediated GPIbα shedding; number of platelets obtained ([5]; Test Example 5, added for 2 days, 50 μM GM6001, 5 μM S-45282): approximately the same; inhibition of ADAM17-mediated GPIbα shedding ([5]; Test Example 6, 8 days, S-45457 5 μM or 50 μM, GM6001 50 μM): inhibits ADAM17-mediated GPIbα shedding; IC50 ADAM10 [6]: 410 nmol/L

— patent US9034922B2, “Composition for maintaining function of platelets” (THE UNIVERSITY OF TOKYO, priority 2010, dated 2015)
